Some test systems named below: OVCAR-4; COLO 205; EKVX; SF-539; NCI-H226; OVCAR-5; HOP-92; SF-268; SNB-19; Malme-3M; NCI-H23; KM12; OVCAR-3; MOLT-4; HCC 2998; HCT-15; UACC-257; HT-29; SR.
Common to all, as to assay: DTP human tumour cell line panel, 48 h

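Method: 48-hour compound exposure of cells in 96-well plates, five concentrations, linear interpolation of endpoints. Here, GI50 denotes the concentration required for 50% inhibition of growth.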 Calls of active or inactive are those of the source. Cut-off read from the data, not from the text of the source: active = GI50 up to about 1.1 µM and inactive = higher.

With `CC1(F)C=CC(=O)C=C1`, the GI50 (usually the concentration at which growth is held to half of that of the control) with OVCAR-4 was 79.3 µM (inactive); with COLO 205, > 100 µM (inactive); with EKVX it was > 100 µM (inactive); with SF-539, 37.9 µM (inactive); with NCI-H226, 86.9 µM (inactive); in the experiment with OVCAR-5, 58.7 µM (inactive). Further, the GI50 in the experiment on HOP-92 is 30.5 µM (inactive); in the experiment with SF-268, > 100 µM (inactive); in the experiment on SNB-19, > 100 µM (inactive); in the experiment on Malme-3M, 18.4 µM (inactive); in the experiment with NCI-H23 it was > 100 µM (inactive); in the experiment on KM12, > 100 µM (inactive). Further, the GI50 in the experiment on OVCAR-3 was > 100 µM (inactive); with MOLT-4, 26.4 µM (inactive); with HCC 2998 it was > 100 µM (inactive); in the experiment on HCT-15 it was 20 µM; in the experiment on UACC-257, 71.8 µM (inactive); in the experiment with HT-29, 46.5 µM (inactive). For the same molecule, the GI50 in the experiment on SR was 32.6 µM (inactive).

`CC(C)CC(=O)NC(C(=O)NC(C(=O)NC(CC(C)C)C(O)CC(=O)NC(C)C(=O)NC(CC(C)C)C(O)CC(=O)O)C(C)C)C(C)C` (stereo not given): the GI50 is > 100 µM (inactive) in the experiment on OVCAR-4; > 100 µM (inactive) in the experiment on COLO 205; > 100 µM (inactive) in the experiment with EKVX; > 100 µM (inactive) in the experiment on SF-539; 0.436 µM (active) in the experiment on NCI-H226; > 100 µM (inactive) in the experiment with OVCAR-5. Besides, the GI50 in the experiment with HOP-92, with SF-268, with SNB-19, in the experiment on Malme-3M, with NCI-H23 and in the experiment with KM12 was > 100 µM (inactive) throughout. The GI50 is > 100 µM (inactive) in the experiment with OVCAR-3; > 100 µM (inactive) in the experiment on MOLT-4; > 100 µM (inactive) with HCC 2998; above 100 µM in the experiment on HCT-15; > 100 µM (inactive) in the experiment with UACC-257; > 100 µM (inactive) with HT-29. In addition, the GI50 with SR is > 100 µM (inactive).

For `O=C(CCc1cccc(O)c1)NCCc1cccc(O)c1`, the GI50 in the experiment with OVCAR-4, in the experiment with COLO 205, in the experiment on EKVX, in the experiment with SF-539, with NCI-H226 and in the experiment with OVCAR-5 was > 100 µM (inactive) throughout. Also, the GI50 in the experiment with HOP-92, in the experiment on SF-268, in the experiment on SNB-19, in the experiment on Malme-3M, in the experiment on NCI-H23 and with KM12 was > 100 µM (inactive) in each case. The GI50 in the experiment on OVCAR-3 is > 100 µM (inactive); in the experiment on MOLT-4, > 100 µM (inactive); in the experiment with HCC 2998 it was > 100 µM (inactive); with HCT-15, above 100 µM; in the experiment with UACC-257 it was > 100 µM (inactive); in the experiment with HT-29, > 100 µM (inactive). Also, the GI50 in the experiment with SR was > 100 µM (inactive).

On to `COc1ccc2nc(-c3ccc(N)cc3)sc2c1`, for which the GI50 in the experiment on OVCAR-4 was > 100 µM (inactive); in the experiment with COLO 205, > 100 µM (inactive); in the experiment on EKVX it was 32.1 µM (inactive); in the experiment on SF-539, > 100 µM (inactive); with NCI-H226, 34.2 µM (inactive); in the experiment with OVCAR-5, > 100 µM (inactive). Moreover, the GI50 with HOP-92 was > 100 µM (inactive); in the experiment on SF-268, 63.2 µM (inactive); with SNB-19 it was 18.5 µM (inactive); in the experiment on Malme-3M, > 100 µM (inactive); in the experiment on NCI-H23 it was > 100 µM (inactive); in the experiment with KM12, 22.3 µM (inactive). Moreover, the GI50 with OVCAR-3 was > 100 µM (inactive); in the experiment on MOLT-4, 13.6 µM (inactive); with HCC 2998 it was 42 µM (inactive); in the experiment on HCT-15, 50.5 µM; in the experiment on UACC-257, > 100 µM (inactive); in the experiment with HT-29 it was 66.5 µM (inactive). Also, the GI50 in the experiment with SR is 32.4 µM (inactive).

Regarding `O=c1c2ccccc2nc(Nc2cccc(Cl)c2)n1/N=C/C=C/c1ccccc1`, the GI50 in the experiment on OVCAR-4 was 45.5 µM (inactive); with COLO 205, > 100 µM (inactive); in the experiment with EKVX it was 80.7 µM (inactive); with SF-539, 35.7 µM (inactive); with NCI-H226, 99.5 µM (inactive); in the experiment with OVCAR-5, > 100 µM (inactive). Further, the GI50 in the experiment with HOP-92 is 91.2 µM (inactive); in the experiment on SF-268, 53 µM (inactive); in the experiment with SNB-19, 47.2 µM (inactive); with Malme-3M, > 100 µM (inactive); in the experiment with NCI-H23, 71.9 µM (inactive); with KM12, > 100 µM (inactive). Further, the GI50 in the experiment with OVCAR-3 was 73.1 µM (inactive); with MOLT-4, > 100 µM (inactive); in the experiment with HCC 2998, 94 µM (inactive); with HCT-15 it was above 100 µM; with UACC-257 it was 85.9 µM (inactive); with HT-29, 61.9 µM (inactive). In addition, the GI50 in the experiment with SR is 29.6 µM (inactive).

`COC(=O)CCC(C)[C@H]1CCC2C3CC[C@@H]4CC5(CC[C@]4(C)C3C[C@H](OC(C)=O)[C@@]21C)OOC1(CCCCC1)OO5` (stereo not given in full): the GI50 in the experiment with OVCAR-4 was 4.06 µM (inactive); in the experiment on COLO 205, 6.17 µM (inactive); in the experiment with EKVX, 1.9 µM (inactive); in the experiment on SF-539, 44.7 µM (inactive); in the experiment on NCI-H226 it was > 100 µM (inactive); in the experiment with OVCAR-5, 17.3 µM (inactive). Moreover, the GI50 in the experiment with HOP-92 is 46.6 µM (inactive); in the experiment with SF-268 it was 19.7 µM (inactive); with SNB-19, > 100 µM (inactive); in the experiment on Malme-3M, 4.03 µM (inactive); in the experiment with NCI-H23 it was 9.55 µM (inactive); with KM12, 8.85 µM (inactive). For the same molecule, the GI50 in the experiment on OVCAR-3 is 15.3 µM (inactive); in the experiment on MOLT-4, 6.11 µM (inactive); with HCC 2998, 2.25 µM (inactive); with HCT-15 it was 11.9 µM; in the experiment with UACC-257, 4.49 µM (inactive); with HT-29 it was 14.2 µM (inactive). The GI50 with SR is 3.33 µM (inactive).

For `COc1cc(C(=O)Oc2c(C(C)=O)sc3c2c(=O)n(-c2ccccc2)c(=S)n3-c2ccccc2)cc(OC)c1OC`, the GI50 in the experiment on OVCAR-4 is 24.5 µM (inactive); in the experiment with COLO 205 it was 15.7 µM (inactive); with EKVX it was 18.7 µM (inactive); in the experiment on SF-539 it was 11.6 µM (inactive); in the experiment on NCI-H226 it was 3.86 µM (inactive); in the experiment with OVCAR-5 it was 17.5 µM (inactive). Further, the GI50 in the experiment with HOP-92 is 19.3 µM (inactive); in the experiment on SF-268, 24.5 µM (inactive); with SNB-19, 24.7 µM (inactive); in the experiment on Malme-3M, 8.17 µM (inactive); in the experiment with NCI-H23, 20.2 µM (inactive); in the experiment on KM12, 22.8 µM (inactive). Also, the GI50 in the experiment with OVCAR-3 was 18.2 µM (inactive); with MOLT-4 it was 25 µM (inactive); with HCC 2998, 24.7 µM (inactive); with HCT-15, 22.2 µM; in the experiment with UACC-257, 28.1 µM (inactive); in the experiment with HT-29 it was 11 µM (inactive). In addition, the GI50 in the experiment on SR is > 100 µM (inactive).

As for `O=c1ssc(Cl)c1Nc1c(Cl)ssc1=O`, the GI50 was 18.2 µM (inactive) in the experiment with OVCAR-4; 11.3 µM (inactive) in the experiment with COLO 205; 20.6 µM (inactive) with EKVX; 25.1 µM (inactive) in the experiment on SF-539; 28.4 µM (inactive) with NCI-H226; 19.4 µM (inactive) with OVCAR-5. In addition, the GI50 in the experiment on HOP-92 is 20 µM (inactive); with SF-268 it was 23.1 µM (inactive); with SNB-19, 25.7 µM (inactive); in the experiment on Malme-3M, 17.9 µM (inactive); with NCI-H23 it was 19.9 µM (inactive); with KM12 it was 17.3 µM (inactive). Also, the GI50 in the experiment on OVCAR-3 is 20.5 µM (inactive); in the experiment on MOLT-4 it was 2.25 µM (inactive); with HCC 2998 it was 22.3 µM (inactive); in the experiment with HCT-15, 18.6 µM; in the experiment on UACC-257, 16.5 µM (inactive); in the experiment on HT-29 it was 22.4 µM (inactive). Moreover, the GI50 with SR was 3.62 µM (inactive).

On to `COC(=O)C(=O)c1c2ccccc2n2ccc3c4ccccc4[nH]c3c12`, for which the GI50 in the experiment with OVCAR-4 is > 10 µM (inactive); in the experiment with COLO 205, > 10 µM (inactive); in the experiment with EKVX, 0.406 µM (active); in the experiment with SF-539, 3.27 µM (inactive); with NCI-H226, > 10 µM (inactive); in the experiment with OVCAR-5, > 10 µM (inactive). Further, the GI50 in the experiment with HOP-92, in the experiment with SF-268, in the experiment on SNB-19, with Malme-3M, in the experiment on NCI-H23 and in the experiment with KM12 was > 10 µM (inactive) throughout. Moreover, the GI50 with OVCAR-3 is > 10 µM (inactive); in the experiment with MOLT-4, > 10 µM (inactive); with HCC 2998 it was > 10 µM (inactive); in the experiment with HCT-15, above 10 µM; in the experiment with UACC-257 it was > 10 µM (inactive); in the experiment with HT-29, > 10 µM (inactive). Moreover, in the experiment with SR, the GI50 is > 10 µM (inactive).

`CC1CCC2(NC1)OC1CC3C4CC=C5CC(OC6OC(CO)C(OC7OC(C)C(O)C(O)C7O)C(O)C6OC6OC(C)C(O)C(O)C6O)CCC5(C)C4CCC3(C)C1C2C` (stereo not given): the GI50 in the experiment on OVCAR-4 was 2.54 µM (inactive); in the experiment on COLO 205, 8.63 µM (inactive); in the experiment on EKVX, 2.5 µM (inactive); in the experiment on SF-539 it was 3.3 µM (inactive); in the experiment with NCI-H226, 2.46 µM (inactive); in the experiment with OVCAR-5 it was 5.66 µM (inactive). Besides, the GI50 with HOP-92 is 3.69 µM (inactive); in the experiment on SF-268 it was 2 µM (inactive); in the experiment with SNB-19, 11.1 µM (inactive); in the experiment on Malme-3M it was 2.46 µM (inactive); with NCI-H23, 12.2 µM (inactive); with KM12 it was 3.46 µM (inactive). Besides, the GI50 in the experiment on OVCAR-3 was 1.96 µM (inactive); in the experiment on MOLT-4, 8.55 µM (inactive); in the experiment with HCC 2998 it was 2.16 µM (inactive); in the experiment with HCT-15 it was 6.67 µM; with UACC-257, 2.64 µM (inactive); with HT-29, 5.69 µM (inactive). Moreover, in the experiment on SR, the GI50 is 3.08 µM (inactive).

The record behind these values is ChEMBL document CHEMBL1201862, “PubChem BioAssay data set” (2004).
